Measurements from patent US20150313209A1, “SOLUTION FOR PRESERVING VASCULAR CONDUITS” (SOMAHLUTION, LLC, priority 2012, published 2015).

Test: Stability of ascorbic acid and reduced glutathione in solution over time (chromatography with electrospray MS / photo diode array detection)
Assay type: physicochemical
Settings: stored at room temperature
Procedure: A second solution and the final formulation from Example 1 were analyzed to evaluate the stability of ascorbic acid and reduced glutathione over a period of time at room temperature. The final formulation was formed by mixing together the first and second solutions and its pH was adjusted to about 7.4. […] The stability of ascorbic acid and the stability of reduced glutathione were determined over a period of time in both solutions. Both the final formulation and the second solution were stored at room temperature. The chromatography method developed and employed for this study separated the ascorbic acid and glutathione reproducibly and without any mutual interference between the components or their decomposition products. Two components were detected using electrospray spectrometry in +ve selected ion monitoring mode. In addition L-Ascorbic acid, and L-glutathione were also detected by photo diode array absorbing in the 190-400 nm range. The integrated chromatographic intensities of each of the component peaks was a measure of its molar quantity in solution analyzed. The pH, conductivity, and osmolalities were also measured for each sample. The stability indicating properties of GALA were evaluated at: 40° C.±2° C./75% RH±5% Relative Humidity (RH). A qualified stability chamber with uniform and constant temperature and relative humidity was used for storing the product containers. The chamber's thermometer and digital readout were recorded daily. Samples received for the proposed stability study were logged and tracked in a Sample Receipt and Storage Log and maintained at 2-8° C. until the commencement of the study. A minimum of twenty one containers of the device from each representative batch of the first and second solutions were placed in the stability chamber maintained at 40° C.±2° C./75% RH±5% RH. This date was recorded as the zero time point. Three containers of each of the first and second solutions were pulled at 0, 5, 9, 15, 30, 50, and 80-day intervals from the stability chamber for testing.

[1] = in the final formulation (first and second solutions mixed) having a pH of about 7.4
[2] = in the second solution having a pH of about 3.0

Structure (SMILES)	rate of decay [1]	rate of decay [2]
N[C@@H](CCC(=O)N[C@@H](CS)C(=O)NCC(=O)O)C(=O)O [reduced glutathione, L-glutathione (reduced)]	about 6 mg per day	about 3 mg per day
O=C1O[C@H]([C@@H](O)CO)C(O)=C1O [ascorbic acid, L-ascorbic acid]	about 15 mg per day	about 3 mg per day
